US9115137B2, “2,3,4,5-tetrahydro-1H-pyrido[4,3-B]indole compounds and methods of use thereof” (priority 2008, dated 2015)
Read-outs that look alike come from different tables or passages of the source.

How the values were obtained:
[1] = tested on: rat central imidazoline I2 receptor; test: Central imidazoline I2 radioligand binding ([3H]Idazoxan); conditions: compound at 1 μM; Wistar Rat cerebral cortex
Procedure: To evaluate in radioligand binding assays the activity of compounds of the invention, rat central imidazoline I2 receptor obtained from Wistar Rat cerebral cortex (Brown, C. M. et al., Br. J. Pharmacol. 99:803, 1990) in a modified Tris-HCl buffer (50 mM Tris-HCl buffer, pH 7.4, 0.5 mM EDTA) was used. Compounds of the invention were incubated with 2 nM [^3H]Idazoxan for 30 minutes at 25° C. Non-specific binding was estimated in the presence of 1 μM Idazoxan. Receptor proteins were filtered and washed, the filters were then counted to determine [^3H]Idazoxan specifically bound. Compounds were screened at 1 μM or lower, using 1% DMSO as vehicle. Compounds of the invention were tested in this biochemical assay and percent inhibition of specific binding was determined. Biochemical assay results are presented as the percent inhibition of specific binding in Table 5.

[2] = target: T1, human recombinant serotonin (5-Hydroxytryptamine) 5-HT2A receptor (Homo sapiens, UniProt P28223); test: Serotonin 5-HT2A radioligand binding ([3H]Ketanserin); conditions: read-out: Serotonin (1 μM) 5-HT2A, percent inhibition of specific binding
T1 construct: expressed in transfected cells; host or cells: CHO-K1 cells
T1 sequence (P28223 whole entry): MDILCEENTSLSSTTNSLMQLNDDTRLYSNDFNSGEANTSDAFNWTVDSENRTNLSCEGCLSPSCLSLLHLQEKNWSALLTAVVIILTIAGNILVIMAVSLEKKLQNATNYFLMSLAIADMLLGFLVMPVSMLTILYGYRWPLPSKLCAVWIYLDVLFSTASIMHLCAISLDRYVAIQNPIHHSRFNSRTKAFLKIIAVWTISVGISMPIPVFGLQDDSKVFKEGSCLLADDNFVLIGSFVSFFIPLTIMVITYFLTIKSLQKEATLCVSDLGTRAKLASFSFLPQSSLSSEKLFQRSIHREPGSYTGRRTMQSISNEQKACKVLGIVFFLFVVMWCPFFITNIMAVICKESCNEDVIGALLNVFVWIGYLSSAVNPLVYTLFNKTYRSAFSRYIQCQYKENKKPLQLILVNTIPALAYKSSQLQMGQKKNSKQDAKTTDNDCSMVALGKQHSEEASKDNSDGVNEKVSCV
Procedure: To evaluate in radioligand binding assays the activity of compounds of the invention, human recombinant serotonin (5-Hydroxytryptamine) 5-HT2A receptor expressed in Chinese hamster ovary (CHO-K1) cells (Bonhaus, D. W. et al. Br. J. Pharmacol. 115:622, 1995; Saucier, C. and Albert, P. R., J. Neurochem. 68:1998, 1997) in a 50 mM Tris-HCl buffer, pH 7.4, was used. Compounds of the invention were incubated with 0.5 nM [^3H]Ketanserin for 60 minutes at 25° C. Non-specific binding was estimated in the presence of 1 μM Mianserin. Receptor proteins were filtered and washed, the filters were then counted to determine [^3H] Ketanserin specifically bound. Compounds were screened at 1 μM or lower, using 1% DMSO as vehicle. Biochemical assay results are presented as the percent inhibition of specific binding in Table 7.

Compound | Imidazoline I2 Central (1 μM), percent inhibition of specific binding [1] | other results
CCOC(=O)CCn1c2c(c3cc(Cl)ccc31)CN(C)CC2 [CD17, ethyl 3-(8-chloro-1,2,3,4-tetrahydro-2-methylpyrido[4,3-b]indol-5-yl)propanoate] | 62% | 
CN1CCc2c(c3cc(Cl)ccc3n2CC(=O)O)C1 [CD46, 2-(8-chloro-1,2,3,4-tetrahydro-2-methylpyrido[4,3-b]indol-5-yl)acetic acid] | 28% | 
Cc1ccc2c(c1)c1c(n2CCC(=O)O)CCN(C)C1 [CD47, 3-(1,2,3,4-tetrahydro-2,8-dimethylpyrido[4,3-b]indol-5-yl)propanoic acid] | 3% | 
CN1CCc2c(c3cc(Cl)ccc3n2CCC(=O)O)C1 [CD55, 3-(8-chloro-1,2,3,4-tetrahydro-2-methylpyrido[4,3-b]indol-5-yl)propanoic acid] | 3% | 
CCOC(=O)Cn1c2c(c3cc(C)ccc31)CN(C)CC2 [CD57, ethyl 2-(1,2,3,4-tetrahydro-2,8-dimethylpyrido[4,3-b]indol-5-yl)acetate] |  | inhibition at 1 µM ([2]; compound at 1 μM, CHO-K1 cells): 92%
Cc1ccc2c(c1)c1c(n2CC(=O)O)CCN(C)C1 [CD58, 2-(1,2,3,4-tetrahydro-2,8-dimethylpyrido[4,3-b]indol-5-yl)acetic acid] | 3% | 
Cc1ccc2c(c1)c1c(n2CCN)CCN(C)C1 [CD62, 2-(1,2,3,4-tetrahydro-2,8-dimethylpyrido[4,3-b]indol-5-yl)ethanamine] | 13% | 
CN1CCc2c(c3cc(Cl)ccc3n2CCCO)C1 [CD87, 3-(8-chloro-2-methyl-3,4-dihydro-1H-pyrido[4,3-b]indol-5(2H)-yl)propan-1-ol] |  | inhibition at 1 µM ([2]; compound at 1 μM, CHO-K1 cells): 66%
CN1CCc2c(c3cc(Cl)ccc3n2CCBr)C1 [CD88, 5-(2-bromoethyl)-8-chloro-2-methyl-2,3,4,5-tetrahydro-1H-pyrido[4,3-b]indole] |  | inhibition at 1 µM [2]: 98%
CN1CCc2c(c3cc(Cl)ccc3n2CCO)C1 [CD89, 2-(8-chloro-2-methyl-3,4-dihydro-1H-pyrido[4,3-b]indol-5(2H)-yl)ethanol] |  | inhibition at 1 µM ([2]; compound at 1 μM, CHO-K1 cells): 70%
Cc1ccc2c(c1)c1c(n2CCO)CCN(C)C1 [CD90, 2-(2,8-dimethyl-3,4-dihydro-1H-pyrido[4,3-b]indol-5(2H)-yl)ethanol] |  | inhibition at 1 µM ([2]; compound at 1 μM, CHO-K1 cells): 58%
Cc1ccc2c(c1)c1c(n2CCBr)CCN(C)C1 [CD91, 5-(2-bromoethyl)-2,8-dimethyl-2,3,4,5-tetrahydro-1H-pyrido[4,3-b]indole] |  | inhibition at 1 µM ([2]; compound at 1 μM, CHO-K1 cells): 96%
CCOC(=O)Cn1c2c(c3cc(Cl)ccc31)CN(C)CC2 [Compound 10, ethyl 2-(8-chloro-1,2,3,4-tetrahydro-2-methylpyrido[4,3-b]indol-5-yl)acetate] | 25% | 
CC(C)OC(=O)Cn1c2c(c3cc(Cl)ccc31)CN(C)CC2 [Compound 11, isopropyl 2-(8-chloro-1,2,3,4-tetrahydro-2-methylpyrido[4,3-b]indol-5-yl)acetate] | 5% | 
CN1CCc2c(c3cc(Cl)ccc3n2CC(=O)OCc2ccccc2)C1 [Compound 13, benzyl 2-(8-chloro-1,2,3,4-tetrahydro-2-methylpyrido[4,3-b]indol-5-yl)acetate] | 16% | 
CN1CCc2c(c3cc(Cl)ccc3n2CC(=O)OC2CCCC2)C1 [Compound 15] | 23% | 
CCNC(=O)Cn1c2c(c3cc(C)ccc31)CN(C)CC2 [Compound 22, N-ethyl-2-(1,2,3,4-tetrahydro-2,8-dimethylpyrido[4,3-b]indol-5-yl)acetamide] | 51% | 
Cc1ccc2c(c1)c1c(n2CC(=O)NC(C)C)CCN(C)C1 [Compound 23, 2-(1,2,3,4-tetrahydro-2,8-dimethylpyrido[4,3-b]indol-5-yl)-N-isopropylacetamide] | 1% | 

Compound | Imidazoline I2 Central (1 μM), percent inhibition of specific binding [1] | other results
Cc1ccc2c(c1)c1c(n2CC(=O)NCc2ccccc2)CCN(C)C1 [Compound 25, N-benzyl-2-(1,2,3,4-tetrahydro-2,8-dimethylpyrido[4,3-b]indol-5-yl)acetamide] | 18% | 
CN1CCc2c(c3cc(Cl)ccc3n2CC(=O)NC2CCCC2)C1 [Compound 27, 2-(8-chloro-1,2,3,4-tetrahydro-2-methylpyrido[4,3-b]indol-5-yl)-N-cyclopentylacetamide] | 8% | 
Cc1ccc2c(c1)c1c(n2CCC(=O)NCC2CCCCC2)CCN(C)C1 [Compound 30, N-(cyclohexylmethyl)-3-(1,2,3,4-tetrahydro-2,8-dimethylpyrido[4,3-b]indol-5-yl)propanamide] | 61% | 
CN1CCc2c(c3cc(Cl)ccc3n2CCC(=O)NC2CCCC2)C1 [Compound 31, 3-(8-chloro-1,2,3,4-tetrahydro-2-methylpyrido[4,3-b]indol-5-yl)-N-cyclopentylpropanamide] | 33% | 
CN1CCc2c(c3cc(Cl)ccc3n2CC(N)=O)C1 [Compound 45, 2-(8-chloro-1,2,3,4-tetrahydro-2-methylpyrido[4,3-b]indol-5-yl)acetamide] | 24% | 
Cc1ccc2c(c1)c1c(n2CCC(=O)Nc2ccc(F)cc2)CCN(C)C1 [Compound 47, N-(4-fluorophenyl)-3-(1,2,3,4-tetrahydro-2,8-dimethylpyrido[4,3-b]indol-5-yl)propanamide] | 47% | 
CN1CCc2c(c3cc(Cl)ccc3n2CC(=O)N(C)C)C1 [Compound 48, 2-(8-chloro-1,2,3,4-tetrahydro-2-methylpyrido[4,3-b]indol-5-yl)-N,N-dimethylacetamide] | 18% | 
CN1CCc2c(c3cc(Cl)ccc3n2CCC(=O)N(C)C)C1 [Compound 49, 3-(8-chloro-1,2,3,4-tetrahydro-2-methylpyrido[4,3-b]indol-5-yl)-N,N-dimethylpropanamide] | 58% | 
Cc1ccc2c(c1)c1c(n2CCNC(=O)c2ccncc2)CCN(C)C1 [Compound 50, N-(2-(1,2,3,4-tetrahydro-2,8-dimethylpyrido[4,3-b]indol-5-yl)ethyl)isonicotinamide] | 24% | 
Cc1ccc2c(c1)c1c(n2CC(=O)Nc2ccc(F)cc2)CCN(C)C1 [Compound 51, N-(4-fluorophenyl)-2-(1,2,3,4-tetrahydro-2,8-dimethylpyrido[4,3-b]indol-5-yl)acetamide] | 12% | 
CCCCOC(=O)Cn1c2c(c3cc(Cl)ccc31)CN(C)CC2 [Compound 52, butyl 2-(8-chloro-1,2,3,4-tetrahydro-2-methylpyrido[4,3-b]indol-5-yl)acetate] | 14% | 
Cc1ccc2c(c1)c1c(n2CCC(=O)NCc2ccccc2)CCN(C)C1 [Compound 59, N-benzyl-3-(1,2,3,4-tetrahydro-2,8-dimethylpyrido[4,3-b]indol-5-yl)propanamide] | 64% | 
CN1CCc2c(c3cc(Cl)ccc3n2CC(=O)NC2CCCCC2)C1 [Compound 60, 2-(8-chloro-1,2,3,4-tetrahydro-2-methylpyrido[4,3-b]indol-5-yl)-N-cyclohexylacetamide] | 6% | 
Cc1ccc2c(c1)c1c(n2CCNC(=O)C(C)C)CCN(C)C1 [Compound 61, N-(2-(1,2,3,4-tetrahydro-2,8-dimethylpyrido[4,3-b]indol-5-yl)ethyl)isobutyramide] | 40% | 
Cc1ccc2c(c1)c1c(n2CCNC(=O)C2CCCCC2)CCN(C)C1 [Compound 62, N-(2-(1,2,3,4-tetrahydro-2,8-dimethylpyrido[4,3-b]indol-5-yl)ethyl)cyclohexanecarboxamide] | 42% | 
Cc1ccc2c(c1)c1c(n2CCNC(=O)c2ccc(F)cc2Cl)CCN(C)C1 [Compound 63, 2-chloro-4-fluoro-N-(2-(1,2,3,4-tetrahydro-2,8-dimethylpyrido[4,3-b]indol-5-yl)ethyl)benzamide] | 41% | 
Cc1ccc2c(c1)c1c(n2CC(N)=O)CCN(C)C1 [Compound 64, 2-(1,2,3,4-tetrahydro-2,8-dimethylpyrido[4,3-b]indol-5-yl)acetamide] | 16% | 
Cc1ccc2c(c1)c1c(n2CCNC(=O)C2CCNCC2)CCN(C)C1 [Compound 65, N-(2-(1,2,3,4-tetrahydro-2,8-dimethylpyrido[4,3-b]indol-5-yl)ethyl)piperidine-4-carboxamide] | 23% | 
